Experiments:
[1] = tested on: Sprague-Dawley rats; assay: Acute effect on insulin, FFA and TG in rats fed chow or high fat diet for 2 weeks; assay type: in vivo, rat; conditions: 1 mg/kg oral gavage, 4 hr fast
Method: FIG. 8 graphically illustrates the time-course of the effect of Compound A on serum (A) insulin, (B) free fatty acids (FFA), and (C) triglycerides (TG) in rats fed normal diet (ND) and high fat diet (HFD) for 2 weeks as discussed in Example 32. Animals were fasted for four hours before the experiment. Compound A was administered via oral gavage at a dose of 1 mg/kg. Values represent mean±SEM from number of animals indicated in the parenthesis for each group.
All experimental procedures were performed under a protocol approved by the IACUC (CV Therapeutics, Inc.) and in accordance with the recommendations set forth in the Guide for the Care and Use of Laboratory Animals published by the National Research Council. Male Sprague-Dawley rats (225-250 gm) with either one or two indwelling catheters (carotid and jugular) were obtained from Charles River Laboratories (Wilmington, Mass.). Animals were housed 1 per cage in a room maintained on a 12 h light/dark cycle (light on 06.00-18.00 h) under constant temperature (22-25° C.) and with ad libitum access to food and water. Rats on normal diet (Chow) were fed standard laboratory chow (12% fat, 60% carbohydrate, and 28% protein) throughout the study, while animals in the high fat (HF) diet group were given a diet (TD88137 from Harlan Teklad, Madison, Wis.) containing 42% fat, 43% carbohydrate, and 15% protein.
The anti-lipolytic effects of Compound A (see chemical name below) were studied in awake rats. On the day of the experiment, animals were put in metabolic cages and left undisturbed to acclimate to the environment for 1-2 hrs. An infusion set (21 G×¾″, 0.8×19 mm U.T.W., 3½″, 9 cm tubing, volume 0.15 ml) was connected to the arterial catheter for blood sampling. A 1% sodium citrate saline solution was used to flush the lines. A pre-treatment blood sample was obtained from each animal to determine baseline values for glucose, insulin, FFA and TG. Blood samples were collected into plasma and serum separator tubes (Becton Dickinson, Franklin Lakes, N.J.) at pre-determined time points. Oral glucose tolerance test (OGTT) was performed by giving 2 gm/kg of glucose load. Compound A was given via an oral gavage 15 minutes prior to the glucose load. For chronic experiments Compound A was administered twice a day via subcutaneous injection at a dose of 5 mg/kg for 2 weeks. An OGTT was performed at the end of two weeks at ˜2 hrs after the last dose of Compound A.
Compound A (2-{6-[((1R,2R)-2-hydroxycyclopentyl)amino]purin-9-yl}(4S,5S,2R,3R)-5-[(2-fluorophenylthio)methyl]oxolane-3,4-diol) was synthesized by the Department of Medicinal and Bio-Organic chemistry of CV Therapeutics, Inc. Sodium citrate was purchased from Sigma (St. Louis, Mo.). PEG 400 was purchased from VWR (by EMD Chemicals). Triton WR1339 was diluted in warm saline (˜37° C.) with frequent vortexing. Compound A was dissolved in. PEG 400, and then diluted with distilled water to make a 20% PEG drug solution. FFA and TGs were measured using commercial kits from Wako Chemicals, (Richmond, Va.). Glucose and Insulin were measured using commercial kits from Thermo Electron Corporation (Waltham, Mass.) and Crystal Chem (Downers Grove, Ill.), respectively.
All data are reported as mean±SEM. Statistical analysis of data from experiments with 2 treatment groups was performed using the unpaired Student's t-test. One way analysis of variance (ANOVA) followed by Newman-Keuls posthoc analysis was used for multiple comparisons. Data form OGTT was analyzed by calculating area under the curve (AUC) using prism graphpad software. Differences between/among treatment groups were considered to be significant when the probability of their occurrence by chance alone was <0.05.

[2] = tested on: awake rats; assay: Insulin dose response to reduce FFA with and without Compound A in awake rats; assay type: in vivo, rat
Method: FIG. 6 graphically represents how Compound A potentates the effect of insulin in reducing FFA levels. Shown are the dose response curves for the effect of insulin to reduce FFA obtained in the absence and presence of Compound A (0.5 mg/kg) in awake rats. Both insulin and Compound A were given via IP injection. Each data point is the mean±SEM of the maximal (peak effect) percent decrease in FFA levels from baseline from three to five rats.
The anti-lipolytic effects of Compound A were studied in awake rats. Animals were fasted overnight before experimental use. On the day of the experiment, animals were put in metabolic cages and left undisturbed to acclimate to the environment for 1-2 hrs. An infusion set (21 G×¾″, 0.8×19 mm U.T.W., 3½″, 9 cm tubing, volume 0.15 ml) was connected to the arterial catheter for blood sampling. A 1% sodium citrate saline solution was used to flush the lines. A pre-treatment blood sample was obtained from each animal to determine baseline values for FFA and TG. Compound A was given via oral gavage, sc injection, iv injection, or iv infusion, as described, for each different series of experiments. Blood samples were collected into serum separator tubes (Becton Dickinson, Franklin Lakes, N.J.) at pre-determined times, Blood was allowed to clot, and then centrifuged at 8000 rpm for 4 min at 4° C. The serum was stored at −80° C. and was thawed at 4° C. for determinations of FFA and TG contents.
The effect of insulin (0.005-1 U/kg) to reduce serum FFA was determined in the absence and presence of a single dose (0.5 mg/kg) of Compound A (FIG. 6). Baseline FFA levels before insulin administration in vehicle and Compound A treated groups were 0.84±0.01 and 0.92±0.02 mM, respectively. […] The insulin dose response to reduce FFA levels was then repeated in the presence of Compound A (0.5 mg/kg). Compound A alone (0.5 mg/kg) caused an 18% decrease in FFA levels. The doses of insulin that cause 50% decrease (ED50) in FFA levels in the absence and presence of Compound A were 0.4 and 0.1 U/kg, respectively.

O[C@@H]1[C@H](O)[C@@H](CSc2ccccc2F)O[C@H]1n1cnc2c(N[C@@H]3CCC[C@H]3O)ncnc21 [Compound A, 2-{6-[((1R,2R)-2-hydroxycyclopentyl)amino]purin-9-yl}(4S,5S,2R,3R)-5-[(2-fluorophenylthio)methyl]oxolane-3,4-diol]
decrease in FFA concentration from 0 to 30 min ([1]; Chow rats): 0.24 ± 0.07 mM
decrease in TG concentration from 0 to 30 min ([1]; Chow rats): 17 ± 3 mg/dL
decrease in insulin concentration from 0 to 30 min ([1]; Chow rats): 0.8 ± 0.32 ng/mL
decrease in FFA concentration from 0 to 30 min ([1]; HF rats): 0.65 ± 0.1 mM
decrease in TG concentration from 0 to 30 min ([1]; HF rats): 46 ± 15 mg/dL
decrease in insulin concentration from 0 to 30 min ([1]; HF rats): 2.37 ± 0.85 ng/mL
decrease in FFA levels by Compound A alone ([2]; 0.5 mg/kg IP): 18%
leftward shift of the insulin dose-response to lower FFA ([2]; Compound A 0.5 mg/kg): 4 fold

— US7939509B2, “Partial and full agonists of A1 adenosine receptors” (Gilead Sciences, Inc., priority 2002, dated 2011)
